Results as given in patent US6514918B1, “Viscous, mild, and effective cleansing compositions” (Johnson & Johnson Consumer Companies, Inc., priority 2000, dated 2003).

Legend:
[1] = Final batch viscosity, Brookfield DV-I+ Viscometer; type: physicochemical; conditions: 1.0% in cleansing composition; acceptable if at least twice the viscosity of Example 1
Procedure: After this mixture had cooled to a temperature not greater than 40° C., the following components were added sequentially thereto: 0.10 parts Tetrasodium EDTA, 0.05 parts Quaternium-15, and 1.9 parts Glycerin. After this solution mixture had cooled to room temperature (approximately 25° C.), the pH of the resulting solution was then adjusted with a 20% citric acid solution until a final pH of 6.0 to 6.6 was obtained. The batch weight of the solution was then adjusted with water in order to achieve a total formulation of 100 parts. Table 2 lists the final batch viscosity of each Example as measured by a Brookfield DV-I+Viscometer using the indicated spindle and speed.
The viscosity of the examples was considered acceptable if it was at least twice the viscosity of Example 1.

subject's eye = test: Ocular Irritancy Test (human ocular sting); type: in vivo; conditions: 1.0% in mild cleansing composition
Procedure: 2. Ocular Irritancy Test: Using a double-blinded, randomized, two (2) cell study test design, one (1) drop of a sample (e.g. a 10% dilution of a cleansing composition in water) at a temperature of about 38° C. was instilled into a subject's eye. A new sterile disposable eyedropper was used for each sample and disposed of after being used on only one individual's eye. All instillations were performed either by an investigator or by a trained technician.
Within 30 seconds, or as closely as possible following instillation, the subject was asked to grade the perceived stinging sensation to the eye utilizing the following criteria:
After 15 minutes and 60 minutes post-instillation, the subject was again asked to grade the perceived stinging sensation to the eye. The data was collected from a balanced, complete block experiment then statistically analyzed.
The samples of Examples 1-8 were tested for ocular irritancy. The results are reported in Table 4 in terms of the percentage of subjects who found the respective sample to be stinging to their eyes.
A sample was considered to have low ocular irritancy if less than 20% of the people tested found the sample to sting their eyes.

[2] = Foam Generation (Foam Tray Test); type: physicochemical; conditions: 1.0% in cleansing composition; acceptable if at least twice the foam of Example 1
Procedure: 1. Foam Generation: 1 g of a cleansing composition sample was added to a tray containing 5 liters of tap water, then gently mixed until homogenous without generating any foam. A Model AJMP14 Jiffy Mixer mechanical mixer available from U.S. Best, Inc. with an attached propeller blade was then set at a level in the tray such that the propeller blade was halfway immersed in the mixture. The mixer was then activated at a speed of 2000 RPM for 30 seconds to generate foam. Foam data was collected via photography using a Polaroid MP4+ camera at 30 seconds after the mixing was ceased. The area of foam in the tray was calculated and reported as % area of foam in tray.
Foam performance evaluation was then accomplished for each of the cleansing compositions of Examples 1-8.
Foaming of the Examples was considered acceptable if it was at least twice the amount of foam of Example 1.

Effect on viscosity of a mild cleansing composition [1] | Effect on foam generation in mild cleansing compositions [2] | Substance | Mildness to the eye relative to Cocamide MIPA and Cocamide MEA (subject's eye)
effective at increasing the viscosity | effective at increasing foam generation | Cocamide DEA [reference compound] | significantly more mild to the eye
effective at increasing the viscosity | effective at increasing foam generation | Cocamide MIPA [reference compound] | –
effective at increasing the viscosity | effective at increasing foam generation | PEG-3 Cocamide | significantly more mild to the eye
effective at increasing the viscosity | effective at increasing foam generation | polyethylene glycol (“PEG”)-6 Cocamide [PEG-6 Cocamide] | significantly more mild to the eye

More lines, now with the values behind:

Substance | Effect on viscosity of a mild cleansing composition [1] | Effect on foam generation in mild cleansing compositions [2] | Mildness to the eye relative to Cocamide MIPA and Cocamide MEA (subject's eye)
Cocamide MEA [reference compound] | effective at increasing the viscosity | effective at increasing foam generation | –
PEG-6 Lauramide | effective at increasing the viscosity | effective at increasing foam generation | significantly more mild to the eye
polypropylene glycol (“PPG”)-2 Hydroxyethyl Cocamide [PPG-2 Hydroxyethyl Cocamide] | effective at increasing the viscosity | effective at increasing foam generation | significantly more mild to the eye
